# In patent US20050153870A1, “Medicinal composition for diagnosis, prevention, or therapy of multiple risk factor syndrome” (priority 2002, published 2005):
# Marks after values point to notes of the source that are not given here.
# What was measured:
# Rabbit = assay: Arteriosclerosis suppressing effect, rabbit on hyperfat feed; assay type: in vivo; details: 0.2 to 0.05% mixed to hyperfat feed
# Description: As to prevention/therapy of arteriosclerosis, a big difference is observed in effect between medicaments conceivably effective in improving arteriosclerosis, such as fibrate series medicament, thiazolidine series medicament, probucol, and statin series medicament and a compound of the present invention.
# Zucker rats [1] = assay: Glucose tolerance test using Zucker rats (Example 6); assay type: in vivo, rat
# Procedure: The effect of 4-O-carboxymethylascochlorin (AS-6) in a glucose tolerance test were checked by using Zucker rats. Zucker control rats, Zucker AS-6 administered rats (20 mg/kg, perorally for a week), and Lean control rats were fasted overnight. Next morning, blood was taken from the caudal vein, and thereafter, 2 g/kg of glucose was perorally administered. Blood was taken from the caudal vein 30, 60 and 120 minutes after the administration and checked for blood sugar (7 mice/group).
# C57BL/Ksj-db/db mice = assay: AS-6 in feed to db/db mice (Example 4); assay type: in vivo, mouse; details: 0.1% in feed, 1 week
# Procedure: C57BL/Ksj-db/db mice, which were model animals of multiple risk factor syndrome, were raised for a week with powered feed containing an ascochlorin derivative, 4-O-carboxymethylascochlorin (AS-6), in a content of 0.1%. Thereafter, the weight, blood sugar, blood insulin, and blood neutral fat were measured.
# Zucker rats [2] = assay: Blood pressure of Zucker rat (Example 8); assay type: in vivo; details: for blood pressure, change vs Zucker control group / blood pressure: 0.1% in feed; for blood pressure: AS-6 group at 0th week 144 ± 6
# Procedure: Zucker rats were raised for 4 weeks with feed in which 4-0-carboxylmethyl ascochlorin (AS-6) was mixed in a content of 0.1%. At the 0th, 2nd and 4th week of initiation of feeding, blood pressure was measured (6 rats/group).
# [3] = Zucker rats, 20 mg/kg perorally for a week
compound,measurement,setting,value
COc1c(Cl)c(C)c(C=O)c(O)c1C/C=C(C)/C=C/[C@@]1(C)[C@H](C)CCC(=O)[C@@H]1C [4-O-methylascochlorin],death from circulatory failure,Rabbit,infarction derived from arteriosclerosis of the arteria coronaria and suppressing death
"CC(C=CC1(C)C(C)CCC(=O)C1C)=CCc1c(O)c(C=O)c(C)c(Cl)c1OCC(=O)O (stereo not drawn) [AS-6, 4-O-carboxymethylascochlorin]","blood sugar, change vs Zucker control group",Zucker rats [1]; 0 minute after glucose loading,−19.7%(*)
same,blood sugar,"Zucker rats [1]; 20 mg/kg perorally for a week, 0 minute after glucose loading (fasted overnight), Zucker control 107.5 ± 5.0",86.3 ± 4.5
same,blood sugar,"Zucker rats [1]; 20 mg/kg perorally for a week, 30 minutes after glucose loading, Zucker control 235.1 ± 9.6",167.5 ± 3.8
same,blood sugar,"Zucker rats [1]; 20 mg/kg perorally for a week, 60 minutes after glucose loading, Zucker control 275.8 ± 13.2",220.2 ± 5.0
same,blood sugar,"Zucker rats [1]; 20 mg/kg perorally for a week, 120 minutes after glucose loading, Zucker control 290.3 ± 4.6",202.8 ± 3.6
same,"blood sugar, change vs Zucker control group",Zucker rats [1]; 30 minutes after glucose loading,−28.8%(**)
same,"blood sugar, change vs Zucker control group",Zucker rats [1]; 60 minutes after glucose loading,−20.2%(*)
same,"blood sugar, change vs Zucker control group",Zucker rats [1]; 120 minutes after glucose loading,−30.1%(**)
same,"blood sugar level 30, 60, 120 minutes after glucose loading",Zucker rats [1]; [3],significant decreases
same,decrease of fasting blood sugar level,Zucker rats [1]; [3],19.7%
same,"Blood sugar, change vs db/db control group",C57BL/Ksj-db/db mice,−30.0%**
same,"Body weight, change vs db/db control group",C57BL/Ksj-db/db mice,ns
same,"Cholesterol, change vs db/db control group",C57BL/Ksj-db/db mice,ns
same,"Free fatty acid, change vs db/db control group",C57BL/Ksj-db/db mice,−21.1%**
same,"Insulin, change vs db/db control group",C57BL/Ksj-db/db mice,ns
same,"Neutral fat, change vs db/db control group",C57BL/Ksj-db/db mice,−38.3%**
same,Free fatty acid,C57BL/Ksj-db/db mice; db/db control 1.164 ± 0.03,0.918 ± 0.1 mEq/L
same,Insulin,C57BL/Ksj-db/db mice; db/db control 31.0 ± 3.6,34.6 ± 3.5 μU/mL
same,Body weight,C57BL/Ksj-db/db mice; db/db control 52.9 ± 0.8,56.3 ± 1.2 g
same,Cholesterol,C57BL/Ksj-db/db mice; db/db control 109.9 ± 3.3,114.4 ± 4.3 mg/dL
same,Neutral fat,C57BL/Ksj-db/db mice; db/db control 378.5 ± 19.3,223.5 ± 17.7 mg/dL
same,blood sugar,C57BL/Ksj-db/db mice; db/db control 637.3 ± 28.9,445.8 ± 32.5 mg/dL
same,"blood sugar, blood free fatty acid, and blood neutral fat",C57BL/Ksj-db/db mice; db/db mice,significantly reduced
same,"blood pressure, change vs Zucker control group",Zucker rats [2]; 2nd week,−13.7%(**)
same,blood pressure,"Zucker rats [2]; 2nd week, Zucker control 153 ± 6",132 ± 5
same,"blood pressure, change vs Zucker control group",Zucker rats [2]; 4th week,−19.9%(**)
same,blood pressure,"Zucker rats [2]; 4th week, Zucker control 156 ± 7",125 ± 6
same,decrease in blood pressure in comparison with the Zucker control group,Zucker rats [2]; 2nd week after the initiation of feeding,13.7%
same,decrease in blood pressure in comparison with the Zucker control group,Zucker rats [2]; 4th week after the initiation of feeding,19.9%
